Source: patent US9550742B2, “11-OXO-10,11-dihydrodibenzo[B,F][1,4]thiazepine S-oxide derivatives and their use as dopamine D2 receptor antagonists” (The United States of America, as Represented by the …, priority 2013, dated 2017)
Like-named read-outs stand apart in the source and are kept apart here.

Experiments:
[1] = target: T1, D2 GPCR receptor (DAR) (Homo sapiens, UniProt P14416); assay: D2 beta-arrestin functional assay (PathHunter, CHO); assay type: cell-based; details: for D3/D2 beta-arrestin IC50ratio: ratio of D3 (Example 4) to D2 (Example 2) beta arrestin assay
T1 construct: host or cells: CHO PathHunter β-arrestin cells
Text: For a secondary-screen and selectivity assays, DAR PathHunter® β-arrestin GPCR cell lines from DiscoveRx (Fremont, Calif.). In this) were used. In the D2 Receptor PathHunter® β-arrestin GPCR cell line, the D2 GPCR receptor (DAR) is overexpressed and fused with a small 42-amino acid fragment of β-galactosidase called ProLink™ on a CHO cellular background expressing a fusion protein of β-arrestin and a larger N-terminal deletion mutant of β-galactosidase (“enzyme acceptor”). When DAR is activated by dopamine, it stimulates binding of β-arrestin to the ProLink-tagged DAR and the two complementary parts of β-galactosidase form a functional enzyme. When substrate (PathHunter® Detection reagent) is added, β-galactosidase hydrolyzes it and generates a chemiluminescent signal.
D2 Receptor PathHunter® β-arrestin cells were seeded at 2,100 cells/well in 3 μL/well media (DiscoveRx Plating Reagent 2) with MultiDrop Combi dispenser (Thermo Scientific, Logan, Utah) onto white tissue culture treated 1,536-well Aurora plates (Brooks Automation, Chelmsford, Mass.) and allowed to attach overnight at 37° C., 5% CO2. Next, 23 nL/well of compound solutions in DMSO were added with a pintool transfer (Kalypsis, San Diego, Calif.). The cells were stimulated by compounds for 90 min at 37° C., 5% CO2, after which 1.5 μL/well of DiscoveRx detection reagent was added with BioRAPTR FRD dispenser. The detection reagent was prepared by mixing of Galacton Star Substrate, Emerald II solution and PathHunter buffer (supplied by the assay kit) together at a 1:5:19 proportion just prior to dispensing. The plates were incubated at ambient temperature for 1 hr, and the luminescent signal was read on a ViewLux plate reader (PerkinElmer, Waltham, Mass.).

[2] = target: D2L human dopamine receptors (Homo sapiens, UniProt P14416); assay: D2 binding assay ([^3H]methylspiperone, HEK membranes); details: for D3/D2 binding Ki ratio: ratio of D3 (Example 5) to D2 (Example 3) binding assay
Procedure: Compounds were tested for differences in affinity between three dopamine receptor subtypes using radio-labeled ligand binding assays. The first assay determined the Ki value of the compounds for the D2 DAR subtype using stable HEK cell lines expressing the D2L human dopamine receptors (Codex Biosciences, Gaithersburg, Md.). Cells were cultured in Dulbecco's modified Eagle's Medium containing 10% FBS, 1,000 units/mL Penicillin, 1,000 mg/mL Streptomycin, 100 mM Sodium Pyruvate, 1 μg/mL Gentamicin, and […] G418. All cells were maintained at 37° C. in 5% CO2 and 90% humidity. For radioligand binding assays, cells were removed mechanically using calcium and magnesium-free Earle's Balanced Salt Solution (EBSS(−)). Intact cells were collected by centrifugation and then lysed with 5 mM Tris-HCl and 5 mM MgCl2 at pH 7.4 in a glass homogenizer. Homogenates were centrifuged at 20,000×g for 30 minutes. The membranes were re-suspended in EBSS (pH 7.4) and protein concentration was determined using a Bradford assay according to the manufacturer's recommendations (Bio-Rad). Membranes were diluted to 24 mg/mL. […] Membrane preparations were incubated for 90 min at room temperature with various concentrations of radioligand in a reaction volume of 250 μL EBSS containing 200 mM sodium metabisulfite. Non-specific binding was determined in the presence of 4 μM (+)-butaclamol. Bound ligand was separated from unbound by filtration through GF/C filters using a PerkinElmer cell harvester with ice cold EBSS (4 washes) and quantified on a Top-count (PerkinElmer) after addition of scintillation solution. […] In order to determine the affinity of a given compound for a receptor type, competition-binding assays were performed. […] Reactions were incubated, terminated, and quantified as indicated above.

[3] = target: T2, D2 DAR (Homo sapiens, UniProt P14416); assay: D2 Ca^2+ screen assay (calcium accumulation, HEK293 T-REx with Gqi5); assay type: cell-based
T2 construct: expressed in transfected cells; host or cells: HEK293 T-REx, Tet-inducible, with chimeric G-protein Gqi5
Procedure: The resting concentration of calcium ions (Ca^2+) in the cells' cytoplasm is normally maintained in the range of 10-100 nM. To maintain this low concentration, Ca^2+ is actively pumped from the cytosol to the extracellular space and into the endoplasmic reticulum (ER), and sometimes into the mitochondria. Signaling occurs when the cell is stimulated to release Ca^2+ from intracellular stores. The most common signaling pathway that increases cytoplasmic calcium concentration is the phospholipase C (PLC) pathway. […] IP3 diffuses to the ER, binds to its receptor (IP3 receptor), which is a Ca^2+ channel and, thus, releases Ca^2+ from the ER to the cytosol. To measure this cytosolic Ca^2+ accumulation, we used the Screen Quest™ Fluo-8 Calcium Assay Kit (AAT Bioquest, Sunnyvale, Calif.). Acetoxymethyl (AM) esters bound to Fluo-8™ dye are non-polar molecules that easily cross live cell membranes transporting the dye inside the cell, and are then rapidly hydrolyzed by cellular esterases inside live cells. As Fluo-8™ is freed from AM esters, it binds to Ca^2+ and emits a fluorescent signal at 514 nm that escalates with increasing cytosolic Ca^2±. To measure this calcium flux signal, we used the Functional Drug Screening System (FDSS) (Hamamatsu, Japan), a high throughput screening device that allows optical detection of signal transmissions within living cells in a time-resolving fashion. […] Quest Fluo-8™ calcium reagent was freshly prepared prior to adding to the cells (lyophilized Fluo-8™ dye provided with the kit was re-suspended in 200 μL DMSO as a 500× stock and stored at −20° C.). 2 μL/well of Quest Fluo-8™ calcium dye diluted in HBSS +10 mM HEPES buffer (for every 10 mL buffer, 1 mL of 10× quencher provided in the kit and 20 μL of 500×DMSO stock dye were added) was added to cells with a Multi-Drop Combi (ThermoScientific) and incubated for 45-90 min in the dark at ambient temperature. Then, the plates were introduced into the FDSS where they were pinned with 23 nL of test compound or dopamine controls and were read by FDSS in non-stimulated mode for 180 sec for detection of agonists. […]

[4] = target: D3 dopamine receptor (DAR) (Homo sapiens, UniProt P35462); assay: D3 beta-arrestin functional assay (PathHunter, CHO); assay type: cell-based; details: dose response curve; read-out: D3 β-arrestin assay AC50
Text: A CHO cell line was engineered to overexpress D3 dopamine receptor (DAR) and fused with a small 42-amino acid fragment of β-gal called ProLink™. In addition, these cells stably express a fusion protein of β-arrestin and a larger N-terminal deletion mutant of β-galactosidase (“enzyme acceptor”). When DAR is activated by dopamine, it stimulates binding of β-arrestin to ProLink-tagged DARs, and the two complementary parts of β-galactosidase form a functional enzyme. When substrate (PathHunter® Detection reagent) is added, βgalactosidase hydrolyzes it and generates a chemiluminescent signal.
For the 1,536-well assay, D3 PathHunter® β-arrestin cells were seeded at 2,100 cells/well in 3 μL/well media (DiscoveRx Plating Reagent 2) with MultiDrop Combi dispenser (Thermo Scientific, Logan, Utah) onto white tissue culture treated 1,536-well Aurora plates (Brooks Automation, Chelmsford, Mass.) and allowed to attach overnight at 37° C., 5% CO2. Next, 23 nL/well of compound solutions in DMSO were added with a pintool transfer (Kalypsis, San Diego, Calif.). The cells were stimulated by compounds for 90 minutes at 37° C., 5% CO2, after which 1.5 μL/well of DiscoveRx detection reagent was added with BioRAPTR FRD dispenser. […] The plates were incubated at ambient temperature for 1 h, and the luminescent signal was read on ViewLux plate reader (PerkinElmer, Waltham, Mass.).

[5] = target: D3 human dopamine receptors (Homo sapiens, UniProt P35462); assay: D3 binding assay ([^3H]methylspiperone, HEK293 membranes)
Procedure: Cells were cultured in Dulbecco's modified Eagle's Medium containing 10% FBS, 1,000 units/mL Penicillin, 1,000 mg/mL Streptomycin, 100 mM Sodium Pyruvate, 1 μg/mL Gentamicin, and […] G418. All cells were maintained at 37° C. in 5% CO2 and 90% humidity. For radioligand binding assays, cells were removed mechanically using calcium and magnesium-free Earle's Balanced Salt Solution (EBSS(−)). Intact cells were collected by centrifugation and then lysed with 5 mM Tris-HCl and 5 mM MgCl2 at pH 7.4 in a glass homogenizer. […] Membrane preparations were incubated for 90 min at room temperature with various concentrations of radioligand in a reaction volume of 250 μL EBSS containing 200 mM sodium metabisulfite. […] Bound ligand was separated from unbound by filtration through GF/C filters using a PerkinElmer cell harvester with ice cold EBSS (4 washes) and quantified on a Top-count (PerkinElmer) after addition of scintillation solution. […] In order to determine the affinity of a given compound for a receptor type, competition-binding assays were performed. […] Reactions were incubated, terminated, and quantified as indicated above.

[6] = dopamine D2 calcium release assay of Example 1, read-out: Ca^2+ AC50

T2 sequence (P14416 whole entry): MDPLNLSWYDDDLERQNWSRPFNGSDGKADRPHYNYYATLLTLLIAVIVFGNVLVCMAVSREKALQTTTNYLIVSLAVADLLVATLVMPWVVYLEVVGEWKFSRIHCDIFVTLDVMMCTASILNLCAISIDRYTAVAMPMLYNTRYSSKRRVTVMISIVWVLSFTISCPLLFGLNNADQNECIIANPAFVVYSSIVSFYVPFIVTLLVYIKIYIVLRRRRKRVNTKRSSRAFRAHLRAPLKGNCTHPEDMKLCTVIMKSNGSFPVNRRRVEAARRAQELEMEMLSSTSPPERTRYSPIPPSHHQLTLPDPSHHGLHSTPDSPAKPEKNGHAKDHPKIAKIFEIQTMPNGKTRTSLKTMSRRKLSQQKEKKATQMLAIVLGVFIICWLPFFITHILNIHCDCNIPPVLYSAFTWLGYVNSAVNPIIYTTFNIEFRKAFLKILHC
T1 sequence (P14416 whole entry): as above
Sequence of D2L human dopamine receptors (P14416 whole entry): as above
Sequence of D3 dopamine receptor (DAR) (P35462 whole entry): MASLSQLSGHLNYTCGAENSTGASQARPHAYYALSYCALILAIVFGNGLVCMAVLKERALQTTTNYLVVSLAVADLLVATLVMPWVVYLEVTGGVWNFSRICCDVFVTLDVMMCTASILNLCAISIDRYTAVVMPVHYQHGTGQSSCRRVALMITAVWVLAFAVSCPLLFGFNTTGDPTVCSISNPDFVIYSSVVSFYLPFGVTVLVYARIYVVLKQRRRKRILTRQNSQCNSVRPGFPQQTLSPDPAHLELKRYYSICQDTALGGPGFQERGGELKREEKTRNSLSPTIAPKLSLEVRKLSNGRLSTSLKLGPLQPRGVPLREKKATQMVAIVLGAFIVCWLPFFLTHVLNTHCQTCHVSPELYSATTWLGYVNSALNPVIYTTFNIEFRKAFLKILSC
Sequence of D3 human dopamine receptors (P35462 whole entry): as above

| Compound | D3/D2 beta-arrestin IC50ratio [1] | D3/D2 binding Ki ratio [2] | AC50 [3, 6] | AC50 [4] | AC50 ([1]; dose response curve, read-out: D2 β-arrestin assay AC50) | Ki [2] | AC50 ([3]; dose response curve, read-out: D2 Ca^2+ assay AC50) | Ki [5] |
| --- | --- | --- | --- | --- | --- | --- | --- | --- |
| CCN1C(=O)c2ccccc2[S@+]([O-])c2ccc(C(=O)N[C@H](C)c3ccc(Br)cc3)cc21 [Compound 49, (R)-N-(1-(4-Bromophenyl)ethyl)-10-ethyl-11-oxo-10,11-dihydrodibenzo[b,f][1,4]thiazepine-8-carboxamide 5-(S)-oxide] | 7.1 | 1.3 | < 1 µM |  |  |  |  |  |
| CCN1C(=O)c2ccccc2[S@+]([O-])c2ccc(C(=O)NCc3ccc(OC)cc3)cc21 [Compound 38, 10-Ethyl-N-(4-methoxybenzyl)-11-oxo-10,11-dihydrodibenzo[b,f][1,4]thiazepine-8-carboxamide 5-(S)-oxide] | 2.5 |  | < 1 µM |  |  |  |  |  |
| CCN1C(=O)c2ccccc2[S+]([O-])c2ccc(C(=O)NCc3ccc(OC)cc3)cc21 (stereo not drawn) [Compound 1, 10-Ethyl-N-(4-methoxybenzyl)-11-oxo-10,11-dihydrodibenzo[b,f][1,4]thiazepine-8-carboxamide 5-oxide] | 2.0 | 6.0 | < 1 µM | 5.76 µM | 2.89 µM | 0.08 µM | 0.281 µM | 0.48 µM |
| CN1C(=O)c2ccccc2[S+]([O-])c2ccc(C(=O)NCCc3cccs3)cc21 (racemic) [Compound 32, 10-Methyl-11-oxo-N-(2-(thiophen-2-yl)ethyl)-10,11-dihydrodibenzo[b,f][1,4]thiazepine-8-carboxamide 5-oxide] | 22.3 | 28.7 | < 1 µM |  |  |  |  |  |
| CCN1C(=O)c2ccccc2[S@+]([O-])c2ccc(C(=O)NCc3ccc(F)cc3)cc21 [Compound 47, 10-Ethyl-N-(4-fluorobenzyl)-11-oxo-10,11-dihydrodibenzo[b,f][1,4]thiazepine-8-carboxamide 5-(S)-oxide] | 5.6 | 2.6 | < 1 µM |  |  |  |  |  |

Other lines, results leading:

| D3/D2 beta-arrestin IC50ratio [1] | D3/D2 binding Ki ratio [2] | AC50 [3, 6] | AC50 [4] | AC50 ([1]; dose response curve, read-out: D2 β-arrestin assay AC50) | Ki [2] | AC50 ([3]; dose response curve, read-out: D2 Ca^2+ assay AC50) | Ki [5] | Compound |
| --- | --- | --- | --- | --- | --- | --- | --- | --- |
| 5.0 | 70.0 | < 1 µM |  |  |  |  |  | CN1C(=O)c2ccccc2[S@+]([O-])c2ccc(C(=O)NCc3cccnc3)cc21 [Compound 53, 10-Methyl-11-oxo-N-(pyridin-3-ylmethyl)-10,11-dihydrodibenzo[b,f][1,4]thiazepine-8-carboxamide 5-(S)-oxide] |
| 6.3 | 5.7 | < 1 µM |  |  |  |  |  | CCN1C(=O)c2ccccc2[S@+]([O-])c2ccc(C(=O)NCc3ccc(C#N)cc3)cc21 [Compound 48, N-(4-Cyanobenzyl)-10-ethyl-11-oxo-10,11-dihydrodibenzo[b,f][1,4]thiazepine-8-carboxamide 5-(S)-oxide] |
| 4.5 |  | < 1 µM |  |  |  |  |  | CN1C(=O)c2ccccc2[S@+]([O-])c2ccc(C(=O)NCc3ccc(Cl)cc3)cc21 [Compound 51, N-(4-Chlorobenzyl)-10-methyl-11-oxo-10,11-dihydrodibenzo[b,f][1,4]thiazepine-8-carboxamide 5-(S)-oxide] |
| 7.2 | 1.7 | < 1 µM |  |  |  |  |  | CN1C(=O)c2ccccc2[S@+]([O-])c2ccc(C(=O)NCCN3CCCC3)cc21 [Compound 54, 10-Methyl-11-oxo-N-(2-(pyrrolidin-1-yl)ethyl)-10,11-dihydrodibenzo[b,f][1,4]thiazepine-8-carboxamide 5-(S)-oxide] |
| 11.2 | 16.2 | < 1 µM |  |  |  |  |  | CCN1C(=O)c2ccccc2[S@+]([O-])c2ccc(C(=O)N[C@H](C)c3ccc4ccccc4c3)cc21 [Compound 50, (R)-10-Ethyl-N-(1-(naphthalen-2-yl)ethyl)-11-oxo-10,11-dihydrodibenzo[b,f][1,4]thiazepine-8-carboxamide 5-(S)-oxide] |
| 4.6 | 1.5 | < 1 µM |  |  |  |  |  | CN1C(=O)c2ccccc2[S@+]([O-])c2ccc(C(=O)NCc3ccc(Br)cc3)cc21 [Compound 52, N-(4-bromobenzyl)-10-methyl-11-oxo-10,11-dihydrodibenzo[b,f][1,4]thiazepine-8-carboxamide 5-(S)-oxide] |
